Our source for the MIC values is DBAASP.

≈ marks a conversion by molar mass, not a printed value. A value given as a limit tells only on which side of the number the result lay.

Some test systems named below: Aeromonas sobria; Edwardsiella tarda; Escherichia coli MC1061; Staphylococcus aureus; Streptococcus sanguinis.
Assay in all cases: ≥ marks a high value that may be exact or a test limit, other limits are often not marked, values filed in µg/mL are converted to µM
The subject of test [1] is Escherichia coli CPCC 100521.
Test [2] relates to Staphylococcus aureus CPCC 100520.
For test [3], the system named is Candida albicans CPCC 400416.
Test [4] deals with Shigella flexneri CGMCC 1.1868.
Test [5] concerns Vibrio harveyi CGMCC 1.1593.
Test [6] deals with Corynebacterium glutamicum CGMCC 1.1886.
In test [7] the test system is Vibrio alginolyticus CGMCC 1.1833.
For test [8], the system named is Aeromonas hydrophila CGMCC 1.0927.
Test [9] relates to Vibrio parahaemolyticus CGMCC 1.1615.
The subject of test [10] is Bacillus subtilis CGMCC 1.108.
The test system of test [11] is Micrococcus luteus CGMCC 1.0634.
Test [12] relates to Staphylococcus aureus CGMCC 1.363.
The test system of test [13] is Micrococcus luteus CGMCC 1.634.
Test [14] concerns Staphylococcus epidermidis CGMCC 1.2429.
For test [15], the system named is Vibrio fluvialis CGMCC 1.1609.
The subject of test [16] is Pseudomonas fluorescens CGMCC 1.0032.
Test [17] concerns Candida albicans CGMCC 2.2411.
Test [18] concerns Escherichia coli CICC 10293.
The subject of test [19] is Staphylococcus aureus CICC 10306.
Test [20] deals with Pseudomonas aeruginosa CICC 21636.
The subject of test [21] is Listeria innocua CICC 10417.
Test [22] has as its system Salmonella enterica subsp. enterica serovar Paratyphi B CICC 10437.
The subject of test [23] is Enterobacter cloacae CICC 21539.
Test [24] relates to Saccharomyces cerevisiae CICC 1002.
Test [25] relates to Candida albicans CICC 1965.
Test [26] has as its system Serratia marcescens ATCC 4112.
The test system of test [27] is Bacillus subtilis CICC 10034.
Test [28] concerns Staphylococcus aureus CICC 10384.

Consider `CC[C@H](C)[C@H](NC(=O)CN)C(=O)NCC(=O)N[C@@H](CO)C(=O)N[C@@H](C)C(=O)N[C@H](C(=O)N[C@@H](CC(C)C)C(=O)N[C@@H](CO)C(=O)N[C@@H](C)C(=O)NCC(=O)N[C@@H](CCCCN)C(=O)N[C@@H](CO)C(=O)N[C@H](C(=O)N[C@H](C(=O)N[C@@H](CCCCN)C(=O)NCC(=O)N[C@@H](CC(C)C)C(=O)N[C@@H](C)C(=O)N[C@@H](CCCCN)C(=O)NCC(=O)N[C@@H](CC(C)C)C(=O)N[C@@H](C)C(=O)N[C@@H](CCC(=O)O)C(=O)N[C@@H](Cc1cnc[nH]1)C(=O)N[C@@H](Cc1ccccc1)C(N)=O)[C@@H](C)CC)[C@@H](C)CC)[C@@H](C)CC` [GIGSAILSAGKSIIKGLAKGLAEHF], for which the MIC in [1] is 26.2 µM (≈ 64 µg/mL); in test [2], 26.2 µM (≈ 64 µg/mL); in test [3], at least 52.5 µM.
Regarding `CC[C@H](C)[C@H](NC(=O)[C@H](CCCN=C(N)N)NC(=O)CNC(=O)[C@@H](NC(=O)[C@@H]1CCCN1C(=O)[C@H](Cc1ccccc1)NC(=O)[C@H](CCC(N)=O)NC(=O)[C@H](CC(C)C)NC(=O)CNC(=O)[C@H](C)NC(=O)[C@H](CCCN=C(N)N)NC(=O)[C@H](C)NC(=O)[C@H](CO)NC(=O)[C@H](CCCN=C(N)N)NC(=O)[C@H](CO)NC(=O)[C@@H](NC(=O)[C@H](C)NC(=O)[C@H](CCCCN)NC(=O)[C@H](C)NC(=O)[C@H](CCCCN)NC(=O)[C@H](C)NC(=O)[C@@H](N)CCCCN)C(C)C)C(C)C)C(=O)N[C@@H](Cc1cnc[nH]1)C(=O)N[C@@H](CCCN=C(N)N)C(=O)N[C@@H](Cc1cnc[nH]1)C(=O)N[C@@H](CC(C)C)C(=O)N[C@@H](CCCCN)C(=O)O` [KAKAKAVSRSARAGLQFPVGRIHRHLK], the MIC was 4.24 µM (≈ 12.7 µg/mL) against Aeromonas sobria; at least 48 µM in the test on Edwardsiella tarda; 1.06 µM (≈ 3.16 µg/mL) in test [4]; at least 48 µM in test [5]; 1.06 µM (≈ 3.16 µg/mL) in test [6]; at least 48 µM in test [7]. Also, the MIC was 1.06 µM (≈ 3.16 µg/mL) in test [8]; at least 48 µM in test [9]; 2.12 µM (≈ 6.33 µg/mL) in test [10]; 1.06 µM (≈ 3.16 µg/mL) in test [11]; 2.12 µM (≈ 6.33 µg/mL) in [12]; 1.06 µM (≈ 3.16 µg/mL) in [13]. Moreover, the MIC in test [14] is 2.12 µM (≈ 6.33 µg/mL); in test [15], at least 48 µM; in [16], 1.06 µM (≈ 3.16 µg/mL); in [17], at least 33.9 µM; with Escherichia coli MC1061, 2.12 µM (≈ 6.33 µg/mL).
On to `CC[C@H](C)[C@H](NC(=O)[C@H](CCSC)NC(=O)[C@H](CO)NC(=O)[C@@H](NC(=O)[C@@H](NC(=O)[C@@H](N)CCCCN)C(C)C)[C@@H](C)CC)C(=O)O` [KVISMI], for which the MIC in [18] is 11.6 µM (≈ 8 µg/mL); in [19] it was 11.6 µM (≈ 8 µg/mL); in test [20], 23.2 µM (≈ 16 µg/mL); in [21] it was 5.8 µM (≈ 4 µg/mL); in test [22] it was at least 46.4 µM; in test [23] it was 23.2 µM (≈ 16 µg/mL). Further, the MIC was at least 46.4 µM in test [24]; at least 46.4 µM in test [25]; at least 46.4 µM in test [26]; at least 46.4 µM in test [27]; 11.6 µM (≈ 8 µg/mL) in test [28].
Turning to `CC[C@H](C)[C@H](NC(=O)[C@H](Cc1ccccc1)NC(=O)[C@@H](N)CC(C)C)C(=O)N[C@@H](Cc1ccccc1)C(=O)N[C@@H](Cc1ccccc1)C(=O)N[C@@H](Cc1ccccc1)C(N)=O` [LFIFFF], the MIC against Staphylococcus aureus stood at 15.4 µM (≈ 12.8 µg/mL); with Streptococcus sanguinis, 4.65 µM (≈ 3.87 µg/mL).
